For orientation: IC50 means the concentration that inhibits the measured activity by half.

Like-named read-outs stand apart in the source and are kept apart here.

For 22 compounds, IC50 results are on record in patent US10189826B2, “Heterocyclic compounds and methods of use” (Medivation Technologies LLC, priority 2015, dated 2019).

Series [1] is described as follows: Cytotoxicity assay (LDH release) in HepG2_LSSprom cells. It counts as cell-based. Particulars: human, HepG2 LSSprom cells, LDH release; for IC50 at 24 h: 24 h treatment; for IC50 at 6 h: 6 h treatment. The procedure: (§1) HepG2_LSSprom cells (SwitchGear Genomics, cat# C711010L) were cultured in DMEM with 10% of fetal bovine serum (FBS), supplemented with Puromycin (1 μg/mL), 1% Penicillin/Streptomycin (Pen-Strep), 37° C., humidified, 95% air and 5% CO2. Culture media was refreshed every 2 or 3 days. Cells were used between passage number 6-12.
For cytotoxicity assays, cells were plated out at 20,000 cells/well in transparent 96 well plates in DMEM plus 10% FBS and 1% Pen-Strep without puromycin. After 1 day, cells were treated with Compound by diluting in culture medium without FBS to a final concentration of 0.625, 1.25, 2.5, 3.75, 5 and 10 μM. Compound was prepared by dilutions of 10 mM stock aliquots. As a negative control culture medium was used without FBS plus DMSO. As maximum LDH release control (Lysis control) a lysis buffer provided by the kit manufacturer was used. Treatments with Compound were maintained for 6 h, or 24 h, in cell culture medium without serum until the cytotoxicity assay was started.
The cytotoxicity assay was performed according to the manufacturer's instructions. As maximum LDH release control (Lysis control) 3 wells per plate were treated with 10 μL of lysis buffer 45 min before the treatment was over. Briefly, after the 6 h, or 24 h, of treatment, 50 μL of media from each well was transferred to a new 96-well plate. To the transferred media, 50 μL of reconstituted substrate mix was added. The plates were covered from light and incubated at RT for 10 min. Then, 50 μL of stop solution was added to each well. The plates were then read using a Synergy 4 (Biotek) equipment recording the absorbance at 490 nm.
(§2) Five independent experiments were carried out for both luciferase and cytotoxicity assay. In each experiment, three wells were use per condition and the results are represented as means±SEM.
For cytotoxicity assay, Lysis control was taken as 100%/o of LDH release. The vehicle values were taken as basal LDH release and were subtracted to all the treatments (including vehicle itself) having this value as 0% of LDH release. The LDH release for the treatments was calculated respect to the 100% of LDH release of Lysis control normalized against vehicle. All the negatives values were taken as 0% of cytotoxicity. The graphics were made using the Graph Prism ver. 6.05 software.

The test system of series [2] is SREBP-2 transcriptional activity (SREBP2 cleavage) in HepG2_LSSprom cells. Description: Luciferase reporter driven by a SREBP-2 specific promoter in HepG2_LSSprom cells. It counts as cell-based. The procedure: Dose response effects were measured of Compounds on the transcriptional activity of a Luciferase reporter driven by a SREBP-2 specific promoter in HepG2_LSSprom cells.
as §1
For luminescence assays, cells were plated out at 20,000 cells/well in white 96 well plates in DMEM plus 10% FBS and 1% Pen-Strep without puromycin. After 1 day, cells were treated with Compound by diluting the drug in culture medium without FBS to a final concentration of 0.625, 1.25, 2.5, 3.75, 5 and 10 μM. Drug was prepared by dilutions of 10 mM stock aliquots. As control was used culture medium without FBS plus DMSO. Treatments with Compound were maintained for 6 h, or 24 h, until the luciferase assay was carried out.
After 6 h of treatments with Compound, the luciferase assay was performed. Briefly, the assay solution (buffer+substrate) was prepare just prior to use. To each well 100 μL of assay solution was added. The 96-well plate was then gently mix for 2 min and incubated for 30 min at RT protected from light. The luminescence was read using a Synergy 4 (Biotek) equipment recording luminescence with sensibility set up at 150.
as §2
For luciferase assay, Vehicle (no treatment) was taken as 100% of luciferase activity. This value represents the SREBP-2 transcriptional activity for the vehicle condition and was taken as 100% of SREBP-2 cleaved. The percentage for each treatment was calculated normalizing against the vehicle control. The graphics were made using the GraphPad Prism ver. 6.05 software. Half of maximal inhibitory concentration (IC50) of the effect of Compound on SREBP was obtain by nonlinear fit regression of mean normalized values vs. Compound concentration using the log(inhibitor) vs. response−Variable slope (four parameters) tool.
(Reporter assays use an easily measured gene product as a stand-in for the process of interest.)

Where [3] appears, read: 24 h, 24 h treatment, HepG2_LSSprom cells, read-out: SREBP2 Cleavage (IC50 μM) 24 h.
The mark [4] stands for this setting: 6 h, 6 h treatment, HepG2_LSSprom cells, read-out: SREBP2 Cleavage (IC50 μM) 6 h.

`CC(C)(C)OC(=O)NC1CCCN(C(=O)c2ccc(-c3csc(-c4ccnc(C(C)(C)C)c4)c3)c(Cl)c2)C1` (racemic) [Compound 19, tert-butyl N-(1-{4-[5-(2-tert-butylpyridin-4-yl)thiophen-3-yl]-3-chlorobenzoyl}piperidin-3-yl)carbamate]: the IC50 at 24 h in series [1] was above 3 µM. In addition, in series [2] (setting [3]), the IC50 was determined as 0.25 µM.

For the compound `CC(C)(C)c1cc(-c2cc(-c3ccc(C(=O)N4CCCC(N)C4)cc3Cl)cs2)ccn1` (racemic) [Compound 21, 1-{4-[5-(2-tert-butylpyridin-4-yl)thiophen-3-yl]-3-chlorobenzoyl}piperidin-3-amine], the IC50 at 24 h in series [1] is above 3 µM. In addition, the IC50 in series [2] (setting [3]) is above 1 µM.

In the case of `CC(C)(C)c1cc(-c2cc(-c3ccc(C(=O)N4CCCC(NS(C)(=O)=O)C4)cc3Cl)cs2)ccn1` (racemic) [Compound 31, N-(1-{4-[5-(2-tert-butylpyridin-4-yl)thiophen-3-yl]-3-chlorobenzoyl}piperidin-3-yl)methanesulfonamide], the IC50 at 24 h in series [1] was above 10 µM. In addition, the IC50 in series [2] (setting [3]) stood at 0.99 µM.

As for `CC(=O)NC1CCCN(C(=O)c2ccc(-c3csc(-c4ccnc(C(C)(C)C)c4)c3)c(Cl)c2)C1` (racemic) [Compound 32, N-[1-[4-[5-(2-tert-butyl-4-pyridyl)-3-thienyl]-3-chloro-benzoyl]-3-piperidyl]acetamide], in series [1], the IC50 at 24 h is above 10 µM. For the same compound, the IC50 in series [2] (24 h, read-out: SREBP2 Cleavage (IC50 μM) 24 h) came out at 0.81 µM.

On to `CC(C)(C)c1cc(-c2cc(-c3ccc(C(=O)N4CCCC(N5CCCC5=O)C4)cc3Cl)cs2)ccn1` (racemic) [Compound 34, 1-(1-{4-[5-(2-tert-butylpyridin-4-yl)thiophen-3-yl]-3-chlorobenzoyl}piperidin-3-yl) pyrrolidin-2-one], for which the IC50 at 24 h in series [1] is above 10 µM. Also, the IC50 in series [2] (setting [3]) was determined as 0.85 µM.

Regarding `CC(C)(C)c1cc(-c2cc(-c3ccc(C(=O)N4CCCC(N5CCCS5(=O)=O)C4)cc3Cl)cs2)ccn1` (racemic) [Compound 36, 2-(1-{4-[5-(2-tert-butylpyridin-4-yl)thiophen-3-yl]-3-chlorobenzoyl}piperidin-3-yl)-1λ^6,2-thiazolidine-1,1-dione], the IC50 at 24 h in series [1] is above 10 µM. In addition, the IC50 in series [2] (setting [3]) is 0.49 µM.

As for `CC1(N)CCCN(C(=O)c2ccc(-c3cc(-c4ccnc(C(C)(C)C)c4)cs3)c(Cl)c2)C1` (single isomer, unassigned) [Compound 95a], in series [1], the IC50 at 24 h is above 10 µM. The IC50 in series [2] (24 h treatment, HepG2_LSSprom cells, read-out: SREBP2 Cleavage (IC50 μM) 24 h) is 0.26 µM.

As to `CC(C)(C)c1cc(-c2cc(-c3ccc(C(=O)N4CCNC(=O)C4)cc3Cl)cs2)ccn1` [Compound 7, 4-{4-[5-(2-tert-butylpyridin-4-yl)thiophen-3-yl]-3-chlorobenzoyl}piperazin-2-one], the IC50 at 24 h in series [1] was above 3 µM. For the same compound, in series [2] (setting [3]), the IC50 is above 1 µM.

Regarding `CC(C)(C)c1cc(-c2cc(-c3ccc(C(=O)NC4CCC4)cc3Cl)cs2)ccn1` [Compound 8, 4-[5-(2-tert-butylpyridin-4-yl)thiophen-3-yl]-3-chloro-N-cyclobutylbenzamide], the IC50 at 24 h in series [1] was above 3 µM. For the same compound, the concentration for half-maximal inhibition (IC50) in series [2] (setting [3]) was above 3 µM.

Turning to `CN1CCN(C(=O)c2ccc(-c3csc(-c4ccnc(C(C)(C)C)c4)c3)c(Cl)c2)CC1` [Compound 10, 1-{4-[5-(2-tert-butylpyridin-4-yl)thiophen-3-yl]-3-chlorobenzoyl}-4-methylpiperazine], the IC50 in series [2] (setting [3]) was above 3 µM.

With `CC(C)(C)c1cc(-c2cc(-c3ccc(C(=O)N4CCCCC4)cc3Cl)cs2)ccn1` [Compound 11, 2-tert-butyl-4-{4-[2-chloro-4-(piperidine-1-carbonyl)phenyl]thiophen-2-yl}pyridine], the IC50 at 6 h in series [1] is above 10 µM. For the same compound, the IC50 in series [2] (setting [4]) is below 1 µM; in series [2] (setting [3]), 0.3 µM.

Consider `CC(C)(C)c1cc(-c2cc(-c3ccc(C(=O)N4CCC(F)(F)C4)cc3Cl)cs2)ccn1` [Compound 12, 2-tert-butyl-4-{4-[2-chloro-4-(3,3-difluoropyrrolidine-1-carbonyl)phenyl]thiophen-2-yl}pyridine], for which, in series [1], the IC50 at 6 h was above 10 µM. Further, the IC50 in series [2] (setting [4]) is above 10 µM; in series [2] (setting [3]), 0.5 µM.

On to `CC(C)(C)c1cc(-c2cc(-c3ccc(C(=O)N4CCC(F)(F)CC4)cc3Cl)cs2)ccn1` [Compound 13, 2-tert-butyl-4-{4-[2-chloro-4-(4,4-difluoropiperidine-1-carbonyl)phenyl]thiophen-2-yl}pyridine], for which, in series [1], the IC50 at 6 h was above 10 µM. In addition, the IC50 in series [2] (setting [4]) was above 10 µM; in series [2] (setting [3]) it was 0.54 µM.

Regarding `CC(C)(C)c1cc(-c2cc(-c3ccc(C(=O)NC4CC4)cc3Cl)cs2)ccn1` [Compound 14, 4-[5-(2-tert-butylpyridin-4-yl)thiophen-3-yl]-3-chloro-N-cyclopropylbenzamide], the IC50 in series [2] (setting [4]) turned out to be 3.17 µM.

`CC(C)(C)NC(=O)c1ccc(-c2csc(-c3ccnc(C(C)(C)C)c3)c2)c(Cl)c1` [Compound 15, N-tert-butyl-4-[5-(2-tert-butylpyridin-4-yl)thiophen-3-yl]-3-chlorobenzamide]: in series [2] (setting [4]), the concentration for half-maximal inhibition (IC50) is above 5 µM.

As to `Cc1sc(-c2ccnc(C(C)(C)C)c2)cc1-c1ccc(C(=O)N2CCCCC2)cc1Cl` [Compound 16, 2-tert-butyl-4-{4-[2-chloro-4-(piperidine-1-carbonyl)phenyl]-5-methylthiophen-2-yl}pyridine], the IC50 at 24 h in series [1] was above 3 µM. Further, in series [2] (setting [3]), the 50% inhibitory concentration (IC50) amounted to 0.81 µM.

`O=C(c1ccc(-c2csc(-c3ccnc(N4CCCCC4)c3)n2)c(Cl)c1)N1CCOCC1` [Compound 17, 4-(3-chloro-4-{2-[2-(piperidin-1-yl)pyridin-4-yl]-1,3-thiazol-4-yl}benzoyl) morpholine]: the IC50 in series [2] (setting [4]) and in series [2] (setting [3]) was above 3 µM in each case.

In the case of `CC(O)CNC(=O)c1ccc(-c2csc(-c3ccnc(N4CCCCC4)c3)n2)c(Cl)c1` (stereo not shown) [Compound 18, 3-chloro-N-(2-hydroxypropyl)-4-{2-[2-(piperidin-1-yl)pyridin-4-yl]-1,3-thiazol-4-yl}benzamide], the half-inhibitory concentration (IC50) in series [2] (setting [4]) and in series [2] (setting [3]) was above 3 µM each time.

For `CC(C)(C)OC(=O)N[C@@H]1CCCN(C(=O)c2ccc(-c3csc(-c4ccnc(C(C)(C)C)c4)c3)c(Cl)c2)C1` [Compound 19a, tert-butyl (R)-(1-(4-(5-(2-(tert-butyl)pyridin-4-yl)thiophen-3-yl)-3-chlorobenzoyl)piperidin-3-yl)carbamate], the IC50 at 24 h in series [1] was above 10 µM. Also, the IC50 in series [2] (setting [3]) came out at 0.069 µM.

On to `CC(C)(C)OC(=O)N[C@H]1CCCN(C(=O)c2ccc(-c3csc(-c4ccnc(C(C)(C)C)c4)c3)c(Cl)c2)C1` [Compound 19b, tert-butyl (S)-(1-(4-(5-(2-(tert-butyl)pyridin-4-yl)thiophen-3-yl)-3-chlorobenzoyl)piperidin-3-yl)carbamate], for which, in series [1], the IC50 at 24 h is above 10 µM. Moreover, the IC50 in series [2] (setting [3]) was 0.22 µM.

Turning to `CC(C)(C)c1cc(-c2cc(-c3ccc(C(=O)N4CCS(=O)(=O)CC4)cc3Cl)cs2)ccn1` [Compound 20, 4-{4-[5-(2-tert-butylpyridin-4-yl)thiophen-3-yl]-3-chlorobenzoyl}-1λ^6,4-thiomorpholine-1,1-dione], the IC50 in series [2] (setting [3]) is above 3 µM.

In the case of `CC(C)(C)c1cc(-c2cc(-c3ccc(C(=O)N4CCC[C@@H](N)C4)cc3Cl)cs2)ccn1` [Compound 21a, (R)-(3-aminopiperidin-1-yl)(4-(5-(2-(tert-butyl)pyridin-4-yl)thiophen-3-yl)-3-chlorophenyl)methanone], the IC50 at 24 h in series [1] was above 10 µM. For the same compound, in series [2] (setting [3]), the IC50 turned out to be 0.71 µM.
